Data reported in patent US20150329883A1 (Samsung Electronics Co., Ltd., priority 2014, published 2015).
≈ marks a conversion by molar mass, not a printed value. Where “and” joins values, the source holds several entries; their conditions need not be identical. Equal entries are not always repeated. Where two headings read alike, the source gives them in different places.

Columns and labels:
[1] = tested on: S003/pGEX4-NCgl0275 strain; assay: microbe, parasite or virus in culture
Description: A strain that overexpresses the fourteen SRGs was obtained by cloning the SRGs to Xhol/BamHI restriction site of a pGEX-4 vector to be expressed under an influence of a Ptuf promoter as described in “2. Preparation of pGEX_Ptuf::Ncgl1853, Ncgl1855, Ncgl2988, Ncgl2425, Ncgl2404, Ncgl0368, Ncgl2877, Ncgl0275, Ncgl2359, Ncgl1525, Ncgl0976, Ncgl2673, Ncgl2297, and Ncgl1524 vector” under “Material and Method”, and then introducing each of the vectors thus obtained to a Corynebacterium glutamicum S003 strain.

[2] = tested on: Corynebacterium S003 strain (Δldh, Δpta-ackA, ΔpoxB, and ΔactA); assay: microbe, parasite or virus in culture; conditions: for IC50: Corynebacterium
Experimental: In particular, for a seed culture, the strain was streaked on an active plate including agar 5 g/L of yeast extract, 10 g/L of beef extract, 10 g/L of polypeptone, 5 g/L of NaCl, and 20 g/L of agar, and then cultured at a temperature of 30° C. for about 48 hours. A single colony obtained therefrom was inoculated in 5 ml of a BHIS medium (including 37 g/L of brain-heart infusion agar, 91 g/L of D-sorbitol, pH 7.0) and grown overnight at a temperature of 30° C.
1 ml of the obtained culture solution was inoculated in a 25 ml of BHIS in a 250 ml flask and grown until an OD600 value was 5.0. The culture solution was centrifuged, a supernatant thereof was removed to collect the microorganism only, and the microorganism was washed with CGXII minimal medium. The CGXII minimal medium includes 20 g/L of (NH4)2SO4, 5 g/L of urea, 1 g/L of KH2PO4, 1 g/L of K2HPO4, 0.25 g/L of MgSO4.7H2O, 10 mg/L of CaCl2, 10 mg/L of FeSO4.7H2O, 0.1 mg/L of MnSO4.H2O, 1 mg/L of ZnSO4.7H2O, 0.2 mg/L of CuSO4.5H2O, […], 0.2 mg/L of biotin, 42 g/L of 3-morpholinopropanesulfonic acid (MOPS), and 4% (w/v) of glucose.

[3] = tested on: Corynebacterium glutamicum S003 strain; conditions: 0.0625 M succinic acid, anaerobic, 5 hours, vs control without succinic acid
Experimental: After isolating total RNA from the cultured cells by using RNeasy midi kit (Qiagen), a transciptome was analyzed by using a Corynebacterium glutamicum ATCC 13032, 3×20K chip microarray (MYcroarray.com) according the protocol of the same manufacturer. 6134 unique probes are immobilized on the chip, where each of the probes is a three-times repeat.

[4] = 0.25 M succinic acid, anaerobic, S003 strain

Structure (SMILES): O=C(O)CCC(=O)O [succinic acid]
- IC50 ([1]; Corynebacterium glutamicum, read-out: IC50 value of the glucose uptake rate): 70.8 mg/mL (≈ 600 mM)
- increase of IC50 compared to the control group ([1]; S003/pGEX4-NCgl0275 strain vs control): about 5.45 fold
- glucose uptake rate compared with control group ([2]; 0.0625 M succinic acid, after 15 hours): the same
- glucose uptake ([2]; 0.0625 M succinic acid, within the first 5 hours): suppressed
- decrease of glucose uptake rate [2, 4]: about 66.4%
- succinic acid production [2, 4]: almost not produced
- IC50 ([2]; read-out: IC50 value of the glucose uptake rate): 13 mg/mL (≈ 110 mM)
- IC50 ([2]; read-out: IC50 value of the succinic acid production): 100 mM and 11800 µg/mL
- Fold of reduction of expression, Ncgl0275 (whiB4) [3]: 1.56 fold
- Fold of reduction of expression, Ncgl0368 [3]: 1.60 fold
- Fold of reduction of expression, Ncgl1524 (tpi/tpiA) [3]: 1.700 fold
- Fold of reduction of expression, Ncgl1853 (nrdR) [3]: 4.24 fold
- Fold of reduction of expression, Ncgl1855 (lexA) [3]: 2.44 fold
- Fold of reduction of expression, Ncgl2297 (mdh) [3]: 1.700 fold
- Fold of reduction of expression, Ncgl2359 [3]: 1.52 fold
- Fold of reduction of expression, Ncgl2404 [3]: 1.73 fold
- Fold of reduction of expression, Ncgl2425 [3]: 1.74 fold
- Fold of reduction of expression, Ncgl2673 (fda) [3]: 1.820 fold
- Fold of reduction of expression, Ncgl2877 [3]: 1.57 fold
- Fold of reduction of expression, Ncgl2988 (parB) [3]: 1.91 fold
- reduction of expression of nine expected transcription regulator genes (NCgl1853, NCgl1855, NCgl0368, NCgl0275, NCgl2359, NCgl2404, NCgl2425, NCgl2988, NCgl2877) [3]: ≥ 1.5 fold
